The target of this assay is T1, recombinant autotaxin (Homo sapiens, UniProt Q13822).
T1 construct: made in house; host or cells: Hi5 insect cells (baculovirus)
The assay is described as follows: Autotaxin assay (Amplex Red fluorescence, LPC substrate). The conditions noted are these: ten serial 1:3 dilutions starting at 30 μM, duplicates; 75 μM LPC; values given as upper bounds. The format is biochemical. In outline: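 Recombinant human autotaxin (Hi5 baculovirus) pre-incubated with compound 30 min at 22° C, then 75 μM LPC added for 90 min at 37° C. Choline released detected via choline oxidase/peroxidase/Amplex Red fluorescence (Ex 485, Em 612 nm); ten 1:3 dilutions from 30 μM, normalised to 500 μM C14 LPA, for IC50.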

For `O=C(Nc1ccc2[nH]nnc2c1)c1[nH]nc2c1CCN(C(=O)OCc1cccc(C(F)(F)F)c1)C2` [Compound 55, 3-(1H-Benzotriazol-5-ylcarbamoyl)-2,4,5,7-tetrahydro-pyrazolo[3,4-c]pyridine-6-carboxylic acid 3-trifluoromethyl-benzyl ester], the IC50 is less than 1 µM.
Regarding `O=C(Nc1ccc2[nH]nnc2c1)c1[nH]nc2c1CCN(C(=O)OCc1ccc(SC(F)(F)F)cc1)C2` [Compound 56, 3-(1H-Benzotriazol-5-ylcarbamoyl)-2,4,5,7-tetrahydro-pyrazolo[3,4-c]pyridine-6-carboxylic acid 4-trifluoromethylsulfanyl-benzyl ester], the IC50 was less than 1 µM.
For `O=C(Nc1ccc2[nH]nnc2c1)c1[nH]nc2c1CCN(C(=O)OCc1ccc(OC(F)(F)F)cc1)C2` [Compound 57, 3-(1H-Benzotriazol-5-ylcarbamoyl)-2,4,5,7-tetrahydro-pyrazolo[3,4-c]pyridine-6-carboxylic acid 4-trifluoromethoxy-benzyl ester] the value was less than 10 µM.
Turning to `O=C(Nc1ccc2[nH]nnc2c1)c1[nH]nc2c1CCN(C(=O)OCc1ccc(OC(F)(F)F)c(Cl)c1)C2` [Compound 58, 3-(1H-Benzotriazol-5-ylcarbamoyl)-2,4,5,7-tetrahydro-pyrazolo[3,4-c]pyridine-6-carboxylic acid 3-chloro-4-trifluoromethoxy-benzyl ester], the IC50 was less than 1 µM.
For `COc1ccc(C2CCCN(C(=O)c3[nH]nc4c3CCN(C(=O)c3ccc5[nH]nnc5c3)C4)C2)cc1` (stereo not drawn) [Compound 59, (1H-Benzotriazol-5-yl)-{3-[3-(4-methoxy-phenyl)-piperidine-1-carbonyl]-2,4,5,7-tetrahydro-pyrazolo[3,4-c]pyridin-6-yl}-methanone] the value was less than 30 µM.
In the case of `O=C(NCc1ccc(OC(F)(F)F)cc1)c1[nH]nc2c1CCN(C(=O)c1ccc3[nH]nnc3c1)C2` [Compound 60, 6-(1H-Benzotriazole-5-carbonyl)-4,5,6,7-tetrahydro-2H-pyrazolo[3,4-c]pyridine-3-carboxylic acid 4-trifluoromethoxy-benzylamide], the IC50 was less than 30 µM.
The same measure for `O=C(NCc1ccc(C(F)(F)F)cc1)c1[nH]nc2c1CCN(C(=O)c1ccc3[nH]nnc3c1)C2` [Compound 61, 6-(1H-Benzotriazole-5-carbonyl)-4,5,6,7-tetrahydro-2H-pyrazolo[3,4-c]pyridine-3-carboxylic acid 4-trifluoromethyl-benzylamide]: less than 10 µM; for `COc1ccc2c(c1)CCC(NC(=O)c1[nH]nc3c1CCN(C(=O)c1ccc4[nH]nnc4c1)C3)C2` (stereo not drawn) [Compound 62, 6-(1H-Benzotriazole-5-carbonyl)-4,5,6,7-tetrahydro-2H-pyrazolo[3,4-c]pyridine-3-carboxylic acid (6-methoxy-1,2,3,4-tetrahydro-naphthalen-2-yl)-amide]: less than 10 µM.
`COC(=O)CC(NC(=O)c1[nH]nc2c1CCN(C(=O)c1ccc3[nH]nnc3c1)C2)c1ccc(C(C)(C)C)cc1` (stereo not drawn) [Compound 63, 3-{[6-(1H-Benzotriazole-5-carbonyl)-4,5,6,7-tetrahydro-2H-pyrazolo[3,4-c]pyridine-3-carbonyl]-amino}-3-(4-tert-butyl-phenyl)-propionic acid methyl ester]: the IC50 is less than 30 µM.
